Measured values from patent US20230266302A1, “SYNTHESIS AND USE OF N-BENZYL SULFONAMIDES” (THE UNIVERSITY OF TULSA, priority 2020, published 2023).

Tests used:
Experiment in all cases: ATP level assay (CellTiter-Glo), percent of control
Assay type in all cases: cell-based
[1] = tested on: BxPC3 (pancreatic cancer); conditions: two hour incubation; for activity at 100 µM: Homo sapiens, BXPC-3, 2 h, compound alone, control DMSO, read-out: POC (percent of control) BxPC3
[2] = tested on: H293 (kidney cancer); conditions: two hour incubation; for activity at 100 µM: 2 h, compound alone, control DMSO, read-out: POC (percent of control) H293
[3] = tested on: HDF (normal cells); conditions: two hour incubation; for activity at 100 µM: 2 h, compound alone, control DMSO, read-out: POC (percent of control) HDF
[4] = tested on: HeLa (cervical cancer); conditions: two hour incubation; for activity at 100 µM: Homo sapiens, HeLa, 2 h, compound alone, control DMSO, read-out: POC (percent of control) HeLa
[5] = tested on: MCF10A (non-cancerous breast); conditions: two hour incubation; for activity at 100 µM: Homo sapiens, MCF-10A, 2 h, compound alone, control DMSO, read-out: POC (percent of control) MCF10A
[6] = tested on: MCF7 (breast cancer); conditions: two hour incubation; for activity at 100 µM: Homo sapiens, MCF7, 2 h, compound alone, control DMSO, read-out: POC (percent of control) MCF7
[7] = tested on: MDA-MB (breast cancer); conditions: two hour incubation; for activity at 100 µM: 2 h, compound alone, control DMSO, read-out: POC (percent of control) MDA-MB
[8] = tested on: NCI-H196 (lung cancer); conditions: two hour incubation; for activity at 100 µM: NCI-H196, 2 h, compound alone, control DMSO, read-out: POC (percent of control) NCI-H196
[9] = tested on: PC3 (prostate cancer); conditions: two hour incubation; for activity at 100 µM: 2 h, compound alone, control DMSO, read-out: POC (percent of control) PC3
[10] = tested on: SkBr3 (breast cancer); conditions: two hour incubation; for activity at 100 µM: Homo sapiens, SK-BR-3, 2 h, compound alone, control DMSO, read-out: POC (percent of control) SkBr3
[11] = tested on: T47D (breast cancer); conditions: two hour incubation; for activity at 100 µM: Homo sapiens, T47D, 2 h, compound alone, control DMSO, read-out: POC (percent of control) T47D
[12] = compound 100 uM + rotenone (approximately 1.25 μM)
[13] = compound 100 uM + 2DG (about 10-20 mM)

Compound	activity at 100 µM [1]	POC (percent of control) BxPC3 [1, 12]	activity at 100 µM [2]	POC (percent of control) H293 [2, 13]	POC (percent of control) H293 [2, 12]	activity at 100 µM [3]	POC (percent of control) HDF [3, 13]	POC (percent of control) HDF [3, 12]	activity at 100 µM [4]	POC (percent of control) HeLa [4, 13]	POC (percent of control) HeLa [4, 12]	activity at 100 µM [5]	POC (percent of control) MCF10A [5, 13]	POC (percent of control) MCF10A [5, 12]	activity at 100 µM [6]	POC (percent of control) MCF7 [6, 13]	POC (percent of control) MCF7 [6, 12]	activity at 100 µM [7]	POC (percent of control) MDA-MB [7, 13]	POC (percent of control) MDA-MB [7, 12]	also measured
O=S(=O)(NCc1c[nH]c2ccccc12)c1ccc(Cl)cc1 [Compound 2, N-[(1H-indol-3-yl)methyl]-4-chlorobenzenesulfonamide]	69%	86.4% of control	43.8%	20% of control	47.6% of control	49.3%	37.5% of control	57.6% of control	64.6%	30.8% of control	57.5% of control	42.9%	23.7% of control	58.7% of control	70.1%	25.1% of control	56.9% of control	48.1%	37.8% of control	55.7% of control	activity at 100 µM [8]: 50.9%; POC (percent of control) NCI-H196 [8, 13]: 22.9% of control; POC (percent of control) NCI-H196 [8, 12]: 23.5% of control; activity at 100 µM [9]: 30.9%; POC (percent of control) PC3 [9, 13]: 16.7% of control; POC (percent of control) PC3 [9, 12]: 36.6% of control; activity at 100 µM [10]: 72.6%; POC (percent of control) SkBr3 [10, 13]: 38% of control; POC (percent of control) SkBr3 [10, 12]: 72.6% of control; activity at 100 µM [11]: 22.2%; POC (percent of control) T47D [11, 13]: 16.6% of control; POC (percent of control) T47D [11, 12]: 30.8% of control
Cc1ccc(S(=O)(=O)NCc2c[nH]c3cccc(Br)c23)cc1 [Compound 5, N-[(4-bromo-1H-indol-3-yl)methyl]-4-methylbenzenesulfonamide]	54.3%	36.5% of control	49.7%	17.2% of control	41.2% of control	70.5%	16.1% of control	83.5% of control	76.1%	22.3% of control	31.9% of control	55.3%	15.8% of control	45% of control	86.4%	18.7% of control	55.6% of control	54.4%	24.7% of control	24.6% of control	POC (percent of control) BxPC3 [1, 13]: 10.5% of control; activity at 100 µM [8]: 47.7%; POC (percent of control) NCI-H196 [8, 13]: 4.2% of control; POC (percent of control) NCI-H196 [8, 12]: 9.1% of control; activity at 100 µM [9]: 68.3%; POC (percent of control) PC3 [9, 13]: 4.8% of control; POC (percent of control) PC3 [9, 12]: 18.3% of control; activity at 100 µM [10]: 71.1%; POC (percent of control) SkBr3 [10, 13]: 37.1% of control; POC (percent of control) SkBr3 [10, 12]: 60% of control; activity at 100 µM [11]: 36.6%; POC (percent of control) T47D [11, 13]: 13.8% of control; POC (percent of control) T47D [11, 12]: 36% of control
Cc1cccc2c(CNS(=O)(=O)c3ccccc3)c[nH]c12 [Compound 6, N-[(7-methyl-1H-indol-3-yl)methyl]benzenesulfonamide]	68.9%	69.7% of control	62.6%	31.6% of control	49.6% of control	48.8%	37.7% of control	61.3% of control	75.3%	47.3% of control	66.9% of control	52.3%	41.3% of control	87.8% of control	72%	41% of control	63.4% of control	57.2%	58.5% of control	67.3% of control	POC (percent of control) BxPC3 [1, 13]: 33.4% of control; activity at 100 µM [8]: 64.3%; POC (percent of control) NCI-H196 [8, 13]: 34.3% of control; POC (percent of control) NCI-H196 [8, 12]: 23.7% of control; activity at 100 µM [9]: 38.3%; POC (percent of control) PC3 [9, 13]: 35.9% of control; POC (percent of control) PC3 [9, 12]: 54.3% of control; activity at 100 µM [10]: 97%; POC (percent of control) SkBr3 [10, 13]: 55.9% of control; POC (percent of control) SkBr3 [10, 12]: 79.4% of control; activity at 100 µM [11]: 23.7%; POC (percent of control) T47D [11, 13]: 19.7% of control; POC (percent of control) T47D [11, 12]: 39.1% of control
